Consider twelve compounds from patent US11814352B2, “Salts formed by 2-(1-acyloxy-n-pentyl) benzoic acid and basic amino acid or aminoguanidine, and preparation method and application thereof” (JIANGSU KANION PHARMACEUTICAL CO., LTD., priority 2018, dated 2023).

For orientation: IC50 means the midpoint of a concentration-inhibition curve. For orientation: inhibition means the change of the read-out against control, counted positive when it falls.

SMILES strings stand for the structures. Where two headings read alike, the source gives them in different places.

For assay [1], the system named is ADP induced platelet aggregation. As to the kind of experiment: In vitro anti-platelet aggregation, ADP induced (turbidimetry, PRP). Format: cell-based, rabbits. The procedure: (§1) The animals were used for experiments after 1 week.
(§2) The common carotid artery was separated, and a polyethylene tube was inserted into the common carotid artery to collect blood. […] The upper beige suspension was pipetted to obtain the platelet-rich plasma (PRP). […] The PRP was adjusted with the PPP to make the platelet count at 1×10^8/mL.
(§3) 260 μL of platelet-rich plasma (PRP) was added into a turbidimetric tube. Then 10 μL of test compounds with different concentrations, positive control drugs or normal saline were separately added, and the plasma was incubated at 37° C. for 5 min. Then 30 μL of inducers were added in sequence. The final concentration of an inducer ADP is 10 μM, and the final concentration of an inducer AA is 1 mM. […] Inhibition rate of platelet aggregation (IRPA)=(platelet aggregation rate of the control group−platelet aggregation rate of the experimental group)/platelet aggregation rate of the control group×100%.

The test system of assay [2] is AA induced platelet aggregation. In words: In vitro anti-platelet aggregation, AA induced (turbidimetry, PRP). Type of assay: cell-based, rabbits. The procedure:
as §1, §2, §3

The test system of assay [3] is arteriovenous bypass thrombosis in rats. In words: Effect on arteriovenous bypass thrombosis in rats. Type of assay: in vivo, SD rats. The settings on record: 10 mg/kg/day tail vein 7 days; for inhibition at 10 mg/kg/day: Rattus norvegicus, 168 h, vs model group. The method, then: Male SD rats, weighing 250-280 g, purchased from Beijing Vital River Laboratory Animal Technology Co., Ltd., raised in an SPF breeding environment with indoor temperature controlled at 23±2° C., and allowed to freely eat and drink. The total number of the animals is 64.
Model group: injected with the same volume of normal saline (containing 1% DMSO) through the tail vein, and administered continuously for 7 days. The test was started 2 h after the last dose (n=8).
The dose of all drugs was 10 mg/kg/day. The drugs were formulated into normal saline solutions containing 1% DMSO, and injected through the tail vein for 7 consecutive days. The test was started 2 hours after the last dose (n=8).
The rats were intraperitoneally injected with a 3% pentobarbital sodium solution (30 mg/kg). After anesthesia, the rats were immobilized in the supine position, and a median cervical incision was made to separate the right common carotid artery and left external jugular vein. A 6 cm long suture was put in the middle of a polyethylene tube (the suture needs to be weighed before being put in the tube), and the polyethylene tube was filled with heparin saline (50 U/mL). The polyethylene tube was inserted into the separated blood vessels to make the artery and vein form a loop. After 15 min of circulation of the blood flow, the suture was taken out, and the suture with thrombus was collected and weighed immediately. Then, after the suture was dried at room temperature for 24 h, the dry weight was determined. The total weight minus the weight of the suture was the wet weight of the thrombus, and the dry weight minus the weight of the suture was the dry weight of the thrombus.

For the next assay, the system named is MCAO rats. As to the kind of experiment: Cerebral infarction, cerebral edema and nerve function of rats with focal cerebral ischemia (MCAO). Format: in vivo, SD rats. The settings on record: MCAO rats, 10 mg/kg/day iv 3 days (combinations equimolar), first dose 2 h after reperfusion; for inhibition at 10 mg/kg/day: Rattus norvegicus. The procedure:
The total number of the animals was 88.
Sham operation group: equal volume of normal saline (containing 1% DMSO) (iv. 3 days), TTC, cerebral edema and neurological function score (n=8); […]
The middle cerebral arteries of the rats were blocked by a suture-occluded method, and reperfused after 2 h. […] All drugs were formulated into normal saline solutions containing 1% DMSO for administration, and the duration of administration was controlled at approximately 1 min. […] 2 h after the last administration, the neurological defect scores were firstly obtained, and then the rats of each group were sacrificed. The whole brains were taken out and weighed (wet weight), TTC stained, and dried to determine the effects of the compounds on cerebral infarction and cerebral edema.
2 h after the last administration, the neurological defects of the animals were graded and scored by the Longa's method.
After the neurobehavioral examination was completed, four coronal incisions were made on the whole brains of the rats on the optic chiasma and 2 mm anteroposterior positions of the optic chiasma. After the whole brains were cut into five slices, the brain slices were quickly placed in 5 ml of phosphate buffer solution containing 2% TTC, and incubated at 37° C. in the dark. In the incubation process, the brain slices were turned once every 5 min. After 10 min of incubation, the brain slices were taken out and pictures were taken with a digital camera (Olympus C-4000, Japan).
The calculation formula of brain water content is as follows: Water content of brain tissue (%)=(wet weight of brain tissue−dry weight of brain tissue)/wet weight of brain tissue×100%; Cerebral edema rate (%)=water content of brain tissue of each group (%)−water content of brain tissue of sham operation group (%)/water content of brain tissue of sham operation group (%)×100%; Inhibition rate of cerebral edema (%)=(rate of cerebral edema of model group (%)−rate of cerebral edema of administration group (%))/rate of cerebral edema of model group (%)×100%.

[4] abbreviates: read-out: IC50 ADP (10 μM), rabbit PRP, inducer ADP 10 μM, 37° C.
Setting [5] is: read-out: IC50 AA (1 mM), rabbit PRP, inducer AA 1 mM, 37° C.
Setting [6] is: Oryctolagus cuniculus, Platelet, read-out: IC50 ADP (10 μM), rabbit PRP, inducer ADP 10 μM, 37° C.
Where [7] appears, read: Oryctolagus cuniculus, Platelet, read-out: IC50 AA (1 mM), rabbit PRP, inducer AA 1 mM, 37° C.

Take `CCCCC(OC(C)=O)c1ccccc1C(=O)O` (racemic) [(R/S)-APB, (R/S)-2-(1-acetoxy-n-pentyl)benzoic acid]: the results for the IC50 in assay [1] (setting [4]) and in assay [2] (setting [5]) were 810 ± 40 µM and 470 ± 40 µM, respectively.
For the compound `CCCCC(OC(=O)CC)c1ccccc1C(=O)O` (racemic) [I2, L-Arginine (R/S)-2-(1-Propionyloxy-n-Pentyl) Benzoate], the IC50 stood at 650 ± 40 µM in assay [1] (setting [6]) and 190 ± 20 µM in assay [2] (setting [7]).
Take `CCCCC(OC(=O)CCC)c1ccccc1C(=O)O` (racemic) [I3, L-Arginine (R/S)-2-(1-N-Butyryloxy-n-Pentyl) Benzoate]: the results for the IC50 in assay [1] (setting [6]) and in assay [2] (setting [7]) were 1260 ± 70 µM and 520 ± 30 µM, respectively.
Consider `CCCCC(OC(=O)c1ccccc1)c1ccccc1C(=O)O` (racemic) [I4, L-Arginine (R/S)-2-(1-Benzoyloxy-n-Pentyl) Benzoate], for which the IC50 in assay [1] (setting [4]) was found to be 820 ± 50 µM; in assay [2] (setting [5]), 170 ± 70 µM.
For `CCCCC(OC(C)=O)c1ccccc1C(=O)O` (racemic) [I5, L-Lysine (R/S)-2-(1-Acetoxy-n-Pentyl) Benzoate], the results for the IC50 in assay [1] (setting [6]) and in assay [2] (setting [7]) were 1150 ± 80 µM and 460 ± 30 µM, respectively.
Take `CCCCC(OC(C)=O)c1ccccc1C(=O)O.N[C@@H](Cc1c[nH]cn1)C(=O)O` (racemic) [I6, L-Histidine (R/S)-2-(1-Acetoxy-n-Pentyl) Benzoate]: the IC50 in assay [1] (setting [4]) turned out to be 770 ± 50 µM; in assay [2] (setting [5]), 140 ± 10 µM.
As to `CCCCC(OC(C)=O)c1ccccc1C(=O)O.N=C(N)NN` (racemic) [I7, Aminoguanidine (R/S)-2-(1-Acetoxy-n-Pentyl) Benzoate], the values for the IC50 in assay [1] (setting [4]) and in assay [2] (setting [5]) were 1180 ± 60 µM and 280 ± 70 µM, respectively.
Take `CCCC[C@@H](OC(C)=O)c1ccccc1C(=O)O` [(R)-APB, (R)-2-(1-acetoxy-n-pentyl)benzoic acid]: the figures for the IC50 in assay [1] (setting [6]) and in assay [2] (setting [7]) were 760 ± 70 µM and 190 ± 20 µM, respectively.
For the compound `CCCC[C@H]1OC(=O)c2ccccc21` [(R)-NBP, (R)-butylphthalide], the results for the IC50 in assay [1] (setting [4]) and in assay [2] (setting [5]) were 1600 ± 150 µM and 660 ± 70 µM, respectively.
With `CC1=NN(c2ccccc2)C(=O)C1` [Edaravone], in assay [3] (2 h after last dose), the “Dry weight of thrombus” value was 8.23 ± 0.53. For the same compound, in assay [3] (2 h after last dose), the “Wet weight of thrombus” value worked out at 24.95 ± 1.20. Moreover, the inhibition at 10 mg/kg/day in assay [3] (read-out: Inhibition rate (dry weight of thrombus)) worked out at 18.1%; in assay [3] (read-out: Inhibition rate (wet weight of thrombus)), 31.1%; in the assay on MCAO rats (read-out: Inhibition rate of cerebral edema), 72%; in the assay on MCAO rats (read-out: Inhibition rate of infarct volume) it was 65.8%. Further, the Cerebral edema in the assay with MCAO rats was found to be 4.49 ± 4.84%. In addition, the Infarct volume in the assay with MCAO rats stood at 14.29 ± 2.58%.
In the case of `CCCC[C@@H](OC(C)=O)c1ccccc1C(=O)O.N=C(N)NN` [I7r, Aminoguanidine (R)-2-(1-Acetoxy-n-Pentyl) Benzoate], the results for the IC50 in assay [1] (setting [4]) and in assay [2] (setting [5]) were 940 ± 50 µM and 210 ± 10 µM, respectively.
In the case of `N=C(N)NCCC[C@H](N)C(=O)O` [L-arginine], the IC50 was determined as 5860 ± 690 µM in assay [1] (setting [6]) and 5130 ± 650 µM in assay [2] (setting [7]).
